The values below come from ChEMBL document CHEMBL1201862, “PubChem BioAssay data set” (2004).

Holding throughout (assay): NCI anticancer screen, dose series, 48 h
Assay [1] has as its system SW-620.
Assay [2] relates to CCRF-CEM.
The test system of assay [3] is Malme-3M.
For assay [4], the system named is OVCAR-5.
Assay [5] has as its system MOLT-4.
The subject of assay [6] is UACC-257.
The subject of assay [7] is HCT-116.
Assay [8] deals with SN12C.
For assay [9], the system named is M14.
Assay [10] has as its system SF-539.
Assay [11] has as its system U-251.
Assay [12] has as its system NCI-H23.
In assay [13] the test system is Hs-578T.
For assay [14], the system named is PC-3.
Assay [15] concerns K562.
The test system of assay [16] is NCI-H522.
The subject of assay [17] is SNB-19.
Assay [18] has as its system SF-295.
The test system of assay [19] is EKVX.
For assay [20], the system named is UO-31.

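These data come from cells grown in 96-well plates and exposed to compound for 48 hours at five concentrations. GI50 is the concentration that inhibits growth by half.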 The source made the active and inactive calls. Cut-off read from the data, not from the text of the source: active = GI50 up to about 1.1 µM and inactive = higher.

For the compound `OCCCSCCO`, the GI50 in assay [1], in [2], in assay [3], in [4], in [5] and in [6] was > 100 µM (inactive) throughout. Also, the GI50 in assay [7], in assay [8], in assay [9], in [10], in assay [11] and in assay [12] was > 100 µM (inactive) each time. For the same compound, the GI50 in assay [13], in [14], in [15], in assay [16], in assay [17] and in assay [18] was > 100 µM (inactive) throughout. Further, the GI50 in assay [19] and in assay [20] was > 100 µM (inactive) throughout.

`CC(C)(N)CO[C@H]1C[C@H]2CC[C@@]1(C)C2(C)C`: the GI50 in assay [1] was 23.7 µM (inactive); in assay [2], 25.2 µM (inactive); in assay [3], 18.2 µM (inactive); in assay [4], 18.5 µM (inactive); in assay [5] it was 26.3 µM (inactive); in [6], 17.8 µM (inactive). For the same compound, the GI50 is 15.9 µM (inactive) in [7]; 39.9 µM (inactive) in assay [8]; 16 µM (inactive) in assay [9]; 22.4 µM (inactive) in [10]; 18.1 µM (inactive) in [11]; 23.7 µM (inactive) in assay [12]. For the same compound, the GI50 was 27.5 µM (inactive) in [13]; 27.1 µM (inactive) in [14]; 18.2 µM (inactive) in [15]; 18.7 µM (inactive) in assay [16]; 24.8 µM (inactive) in [17]; 19.9 µM (inactive) in assay [18]. Besides, the GI50 in [19] is 28.3 µM (inactive); in assay [20], 16.5 µM (inactive).

As to `Cc1ccc(I)cc1N=C=S`, the GI50 in assay [1] was 32.7 µM (inactive); in [2], 21.8 µM (inactive); in [3], 25.1 µM (inactive); in [4], 23.4 µM (inactive); in [5], 20.2 µM (inactive); in assay [6] it was 25 µM (inactive). The GI50 in assay [7] is 29.8 µM (inactive); in assay [8], 20.7 µM (inactive); in assay [9], 20.2 µM (inactive); in assay [10] it was 18.8 µM (inactive); in [11], 19.5 µM (inactive); in assay [12], 19.9 µM (inactive). The GI50 in assay [13] was 29.9 µM (inactive); in assay [14], 20.3 µM (inactive); in assay [15], 23 µM (inactive); in [16], 17.2 µM (inactive); in assay [17] it was 23.5 µM (inactive); in [18] it was 26.9 µM (inactive). Moreover, the GI50 in [19] was 23.7 µM (inactive); in [20] it was 17.3 µM (inactive).

Take `COC(c1ccsc1)C(C#N)(C#N)/N=C/c1ccsc1` (stereo not given): the GI50 in [1] is 14.6 µM (inactive); in assay [2] it was 5.96 µM (inactive); in assay [3] it was 15.3 µM (inactive); in assay [4] it was 20.9 µM (inactive); in assay [5], 13.9 µM (inactive); in assay [6] it was 14.7 µM (inactive). In addition, the GI50 in assay [7] was 12.8 µM (inactive); in assay [8] it was 16.7 µM (inactive); in assay [9] it was 17.8 µM (inactive); in [10] it was 15.7 µM (inactive); in assay [11], 17.3 µM (inactive); in assay [12], 13.1 µM (inactive). Besides, the GI50 is 22.1 µM (inactive) in [13]; 14 µM (inactive) in [14]; 13 µM (inactive) in assay [15]; 6.73 µM (inactive) in [16]; 23 µM (inactive) in assay [17]; 18.1 µM (inactive) in [18]. Further, the GI50 in [19] is 14.2 µM (inactive); in [20] it was 13.4 µM (inactive).

For `CN(/N=C/C=N/N(C)C1=NCCN1)C1=NCCN1`, the GI50 in [1], in [2], in assay [3], in assay [4], in assay [5] and in [6] was > 100 µM (inactive) each time. The GI50 in assay [7], in assay [8], in assay [9], in assay [10], in assay [11] and in assay [12] was > 100 µM (inactive) in each case. For the same compound, the GI50 in assay [13], in assay [14], in assay [15], in [16], in assay [17] and in assay [18] was > 100 µM (inactive) throughout. The GI50 in [19] and in [20] was > 100 µM (inactive) in each case.

Regarding `C/C=C/C(C#N)(Cc1ccccc1)OP1(=O)OC(c2ccccc2)C(C)N1C` (stereo not given), the GI50 in assay [1] is > 100 µM (inactive); in [2], 19.4 µM (inactive); in [3], > 100 µM (inactive); in [4], > 100 µM (inactive); in assay [5], 21.2 µM (inactive); in [6], 65.8 µM (inactive). The GI50 was > 100 µM (inactive) in [7]; 81.7 µM (inactive) in assay [8]; > 100 µM (inactive) in assay [9]; > 100 µM (inactive) in assay [10]; 88.5 µM (inactive) in assay [11]; 87.3 µM (inactive) in [12]. Moreover, the GI50 is 89.5 µM (inactive) in [13]; 58.6 µM (inactive) in assay [14]; 38.5 µM (inactive) in assay [15]; 50.1 µM (inactive) in assay [16]; 78.5 µM (inactive) in [17]; 49.1 µM (inactive) in assay [18]. Also, the GI50 in assay [19] was 71.6 µM (inactive); in [20], 55.3 µM (inactive).

Turning to `O=[N+]([O-])c1ccc2c3c1[C@H]1O[C@H]1c1cccc(c1-3)[C@@H]1O[C@H]21`, the GI50 was 0.951 µM (active) in [1]; 1.44 µM (inactive) in [2]; 2.4 µM (inactive) in [3]; 2.37 µM (inactive) in [4]; 3.01 µM (inactive) in assay [5]; 1.82 µM (inactive) in assay [6]. The GI50 in [7] is 1.81 µM (inactive); in [8] it was 2.12 µM (inactive); in [9] it was 1.71 µM (inactive); in assay [10] it was 2.3 µM (inactive); in assay [11] it was 1.8 µM (inactive); in assay [12], 1.81 µM (inactive). Besides, the GI50 in [13] is 3.15 µM (inactive); in [14] it was 2.3 µM (inactive); in assay [15], 0.526 µM (active); in assay [16], 1.67 µM (inactive); in assay [17], 3.54 µM (inactive); in [18], 3.5 µM (inactive). Also, the GI50 is 2.03 µM (inactive) in assay [19] and 2 µM (inactive) in assay [20].

`N=C(N)N/N=C/c1c(-c2ccc([N+](=O)[O-])cc2)nc2n1CCS2`: the GI50 was 2.53 µM (inactive) in assay [1]; 1.89 µM (inactive) in [2]; 17.9 µM (inactive) in [3]; 14.4 µM (inactive) in assay [4]; 3.24 µM (inactive) in assay [5]; 18.5 µM (inactive) in [6]. For the same compound, the GI50 in assay [7] was 7.87 µM (inactive); in assay [8], 7 µM (inactive); in [9], 14.5 µM (inactive); in assay [10] it was 16.3 µM (inactive); in [11] it was 2.3 µM (inactive); in assay [12] it was 14.3 µM (inactive). Further, the GI50 in assay [13] was 16.7 µM (inactive); in [14], 13.2 µM (inactive); in assay [15] it was 3.86 µM (inactive); in assay [16], 10.6 µM (inactive); in [17], 3.54 µM (inactive); in assay [18] it was 18 µM (inactive). The GI50 in assay [19] is 18.3 µM (inactive); in assay [20] it was 15.6 µM (inactive).

`O=C(O)[C@H]1[C@@H](C2CCCCC2)O[C@@H](C2CCCCC2)O[C@H]1C(F)(F)F`: the GI50 in [1] was 19.8 µM (inactive); in [2] it was 22.8 µM (inactive); in assay [3] it was 28.6 µM (inactive); in assay [4], 20.2 µM (inactive); in assay [5], 21.6 µM (inactive); in assay [6], 32.7 µM (inactive). Further, the GI50 was 28.8 µM (inactive) in assay [7]; 17.1 µM (inactive) in [8]; 17.9 µM (inactive) in assay [9]; 35.7 µM (inactive) in [10]; 18.8 µM (inactive) in assay [11]; 21.3 µM (inactive) in [12]. Moreover, the GI50 in assay [13] is 23.1 µM (inactive); in assay [14] it was 17.6 µM (inactive); in [15] it was 33.1 µM (inactive); in assay [16], 52.2 µM (inactive); in [17], 27.5 µM (inactive); in assay [18], 19.1 µM (inactive). Further, the GI50 is 21.4 µM (inactive) in assay [19] and 26.2 µM (inactive) in assay [20].

Take `COc1cc2ncnc(Nc3cccc(Cl)c3)c2cc1OC` [TYRPHOSTIN AG-1478]: the GI50 in assay [1] was 16.1 µM (inactive); in [2], 3.82 µM (inactive); in assay [3], 6.28 µM (inactive); in assay [4], 9.46 µM (inactive); in assay [5], 16.4 µM (inactive); in assay [6] it was 7.57 µM (inactive). For the same compound, the GI50 in assay [7] is 17.6 µM (inactive); in assay [8] it was 8.91 µM (inactive); in assay [9], 7.16 µM (inactive); in [10], 15.9 µM (inactive); in assay [11], 15.2 µM (inactive); in assay [12], 14.6 µM (inactive). In addition, the GI50 in [13] is 3.57 µM (inactive); in assay [14] it was 12.6 µM (inactive); in assay [15], 8.71 µM (inactive); in [16] it was 0.356 µM (active); in assay [17] it was 21 µM (inactive); in [18], 9.48 µM (inactive). For the same compound, the GI50 in assay [19] is 0.392 µM (active); in assay [20], 4.47 µM (inactive).
